In paper PMC5175178, “Development of an in-vivo active reversible butyrylcholinesterase inhibitor” (Scientific Reports, 2016):

Key:
[1] = test system: mice; test: Locomotor activity test; settings: 30 mg kg^–1 IP, 1 h before the assay
Description: Eight-week-old male Albino Swiss (CD–1 Krf) mice weighing from 18 g to 22 g were used in the passive avoidance task, and the locomotor activity and rotarod tests, and C57BL/6 J mice of the same age were used in the MWM and the RAWM tasks. […] The mice had free access to food and water, and the ambient temperature and humidity of the room were kept constant throughout all of the tests. For the behavioral tasks, the mice were selected at random, and each group consisted of 8 to 10 mice dose^−1. The experiments were performed between 08:00 and 14:00. Immediately after these in-vivo assays, the animals were euthanized by cervical dislocation. […] All efforts were made to minimize the number of mice used and their suffering.
Data are means ±SEM. The vehicle and the test compound were administered intraperitoneally, 1 h before the assay. Statistical analysis of the data was performed using repeated measures analysis of variance (ANOVA), followed by Bonferroni multiple comparisons.
The mouse locomotor activity (i.e., number of light-beam crossings) was measured during the next 30 min of the test^36.

[2] = test system: SH-SY5Y cells; test: Cytotoxicity in SH-SY5Y cells, MTS cell viability assay; settings: 48 h
Procedure: Prior to cell treatments, complete medium was replaced with reduced-serum medium (i.e., with 2% fetal bovine serum).
After 24 h (a) or 48 h (b), the cell viability was evaluated using the MTS assay. The control group (DMSO) was considered as 100% cell viability. Data are means ±SD of at least three independent experiments, each carried out in triplicate (a) and quadruplicate (b).
The cells were treated as described above, and cell viability was assessed after 48 h using the CellTiter 96 Aqueous One Solution Cell Proliferation Assay (Promega, Madison, WI, USA), according to the manufacturer instructions. […] The data are presented as percentages of the control (DMSO).

[3] = target: T1, Aβ1–42 aggregation (Homo sapiens, UniProt P05067); test: Aβ1–42 aggregation inhibition, thioflavin-T fluorometric assay; assay type: biochemical
T1 construct: Recombinant human HFIP-pretreated Aβ1–42 peptide (Merck Millipore, Darmstadt, Germany); purchased Merck Millipore, Darmstadt, Germany
T1 sequence (P05067 672-713): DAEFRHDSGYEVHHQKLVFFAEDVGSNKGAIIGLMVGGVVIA
Procedure: Recombinant human HFIP-pretreated Aβ1–42 peptide (Merck Millipore, Darmstadt, Germany) was dissolved in DMSO to give 75 μM stock solution. […]. The ThT emission of the Aβ1–42 began to rise after 4 h, reached a plateau after 20 h, and remained almost unchanged for an additional 28 h of incubation. The fluorescence intensities at the plateau in the absence and presence of the test compound were averaged, and the average fluorescence of the corresponding wells at t= 0 h was subtracted. […]

[4] = target: T1, Aβ1–42 aggregation; test: Aβ1–42 aggregation inhibition, dot-blot assay; assay type: biochemical; settings: 10 μM compound
Procedure: Recombinant human HFIP-pretreated Aβ1–42 peptide (Merck Millipore, Darmstadt, Germany) was dissolved in DMSO to give 100 μM stock solution. Prior to the incubations, the Aβ1–42 peptide stock solution was diluted in HEPES buffered solution (150 mM HEPES, pH 7.4, 150 mM NaCl) to give 10 μM Aβ1–42. […]; 10 μM final concentration), and added to the black-walled 96-well plates in quadruplicate, and diluted with HEPES buffered solution to a final volume of 100 μL. To determine the blank value (b), 1% DMSO in HEPES buffered solution replaced the Aβ1–42 peptide solution. The sealed 96-well plate was placed in an incubator at 37 °C with continuous shaking, for 24 h. Then 10 μL from each well were spotted on nitrocellulose membrane. The membrane was dried and blocked with 5% non-fat milk in TBST (50 mM Tris, pH 7.4, 150 mM NaCl, 0.1% Tween 20) at room temperature for 30 min, washed with TBST, and probed with the LOC anti-amyloid fibrils antibody (Millipore, 1:10,000, in 2% non-fat milk-TBST) or the OC anti-amyloid fibrils antibody (Millipore, 1:10,000, in 2% non-fat milk-TBST), for 1 h. […] The blots were developed with Pierce ECL Western Blotting Substrate (Thermo Scientific) for 2 min, detected with a Bio-Rad ChemiDoc MP Imaging System, and further analyzed with Image Lab software (Bio-Rad). Inhibition of the Aβ1–42 aggregation was quantified using equation: […]

`COCCN(CC1CCCN(Cc2ccccc2)C1)S(=O)(=O)c1ccc2ccccc2c1` (racemic) [compound 2, (±)-N-((1-benzylpiperidin-3-yl)methyl)-N-(2-methoxyethyl)naphthalene-2-sulfonamide] was tested, and the “locomotor activity of mice” value [1] was “transient reduction in the locomotor activity”, the “LD50 SH-SY5Y cells” value [2] was 31.40 µM and the “Aβ(1–42) aggregation inhibition” value ([3]; 10 μM) was “did not inhibit Aβ(1–42) aggregation”. For the same compound, the inhibition at 10 µM ([3]; 10 μM compound, 1.5 μM Aβ1–42, read-out: Percent inhibition ±SEM (%) ThT) was -4.89%, the inhibition at 10 µM ([4]; read-out: Percent inhibition ±SEM (%) Dot blot (LOC antibody)) was 12.7 ± 8.9% and the inhibition at 10 µM ([4]; read-out: Percent inhibition ±SEM (%) Dot blot (OC antibody)) was 2.7 ± 9.32%.
